Several values for one entry are separate records, joined by “and”; a condition that tells them apart may be missing. Equal entries are not always repeated. Where two headings read alike, the source gives them in different places.
Legend:
MCF7 (no NET) = assay: Glutathione depletion in vitro, MCF7; type: cell-based, human; conditions: 7 hrs
Method: (§1) The NB cell line SK—N-BE(2c) (high net) was treated with MIBG, MIBG-disulfide dimer (MIGB-S—S-MIBG), chloromethyl-MIBG (cmMIBG), and BSO. For comparison, the human breast cancer line MCF7 (no NET) was treated with chloromethyl-MIBG and BSO. At specific times, intracellular glutathione in drug-treated cells was determined relative to that in untreated cells (control).
(§2) Cells were exposed to 5 μM chloromethyl-MIBG (cmMIBG), 25 μM BSO and a combination of 5 μM chloromethyl-MIBG+25 μM BSO (both) for 7 hrs. Compared to controls, chloromethyl-MIBG alone depleted glutathione by about 30% in SK—N—Be(2c) cells and 8% in MCF7. BSO, as expected, depleted MCF7 and SK—N—Be(2c) by similar amounts (42 and 54% of controls, respectively). In combination studies, chloromethyl-MIBG+BSO depleted levels by about 85% in the SK—N—Be(2c) cells and had much less effect on the MCF7 cells with glutathione reduced by 49% relative to controls.

SK—N-BE(2c) (high NET) = assay: Glutathione depletion in vitro, SK-N-BE(2c); type: cell-based; conditions: for glutathione depletion compared to controls: 7 hrs
Method: as §1
SK—N-BE(2c) (high NET) cells were treated with a single concentration of chloromethyl-MIBG (25 μM at t=0). Glutathione concentrations in treated and untreated cells were measured at t=0.5, 1, 2, 3 and 4 hrs. Glutathione levels in drug-treated cells progressively fell, with a concentration 50% that of control at t 4 hrs (FIG. 10B).
as §2

[1] = Stability / reaction kinetics by proton NMR (half-life); type: physicochemical; conditions: for Half-life / Half-life w/10 eq GSH: 37° C., pH 7.4, BisTris buffer, 5% DMSO
Text: Proton NMR was used to determine the half-lives for chloro- and bromomethyl-MIBG (Table 1). These analogs react with nucleophiles via an SN2 mechanism; therefore, the rate of the reaction depends on the strength and concentration of the nucleophile as well as the nature of the leaving group. Thus, the half-lives of the analogs are predictably longer in buffer than they are in buffer with added glutathione (a relatively strong nucleophile) and, under the same conditions, the bromo analog (better leaving group) reacts faster than the chloro analog.

SK-N-MC (NET ++) = assay: Cytotoxicity, MTT assay, SK-N-MC; type: cell-based; conditions: 24 hr assay, 1% EtOH
MCF7 (NET 0) = assay: in vitro; type: cell-based, human
NET = target: T1, NET (Homo sapiens, UniProt P23975); assay: NET competitive binding assay ([125I]MIBG displacement, SK-N-SH cells); conditions: 5 μM test compound, 2 hr incubation
T1 construct: endogenous in cells; host or cells: SK-N-SH neuroblastoma cells
T1 sequence (P23975 whole entry): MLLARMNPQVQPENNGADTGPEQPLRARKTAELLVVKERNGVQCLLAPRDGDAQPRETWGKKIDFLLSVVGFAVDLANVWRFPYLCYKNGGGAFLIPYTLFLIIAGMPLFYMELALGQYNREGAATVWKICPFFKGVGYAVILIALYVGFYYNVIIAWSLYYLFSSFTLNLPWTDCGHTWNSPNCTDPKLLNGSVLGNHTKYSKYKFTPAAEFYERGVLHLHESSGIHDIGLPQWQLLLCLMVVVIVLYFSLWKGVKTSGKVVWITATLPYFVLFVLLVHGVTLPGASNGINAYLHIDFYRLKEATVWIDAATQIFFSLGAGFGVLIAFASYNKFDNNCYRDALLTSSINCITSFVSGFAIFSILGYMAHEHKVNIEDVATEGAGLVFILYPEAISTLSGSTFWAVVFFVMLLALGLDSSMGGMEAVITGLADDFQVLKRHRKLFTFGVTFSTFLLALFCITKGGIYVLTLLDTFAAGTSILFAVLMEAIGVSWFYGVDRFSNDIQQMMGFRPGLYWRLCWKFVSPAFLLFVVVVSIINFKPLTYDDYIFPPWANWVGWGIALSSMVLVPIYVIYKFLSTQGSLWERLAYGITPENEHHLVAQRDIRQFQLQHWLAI
Method: An assay to assess binding of various MIBG-analogs to the NET was performed by published methods (Vaidynathan et al, Nucl. Med. Commun. 25:947-955 (2004), Vaidynathan et al, Bioorg. Med. Chem. 12:1649-1656 (2004), Vaidynathan et al, Bioconjugate Chem. 12:798-806 (2001), Vaidynathan et al, Eur. J. Nucl. Med. Mol. Imaging 31:1362-1370 (2004)). In brief, neuroblastoma SK—N—SH cells (moderate levels of NET) were treated with [^125I]MIBG and with increasing concentrations of unlabeled MIBG or MIBG-analogs. At the end of a 2 hr incubation and appropriate work-up, the cell-bound radioactivity was counted. Total cell-bound radioactivity minus non-specific cell-bound radioactivity gave a value for specific binding which was plotted in FIG. 9 against the concentration of test compounds. At 5 μM, cold MIBG displaced “100%” of the labeled-MIBG (i.e., “zero” cell-bound radioactivity). At 5 μM, chloromethyl-MIBG displaced 83%; the disulfide MIBG-SS-ethyl and the ester MIBG-phenylbutyrate displaced 50-55%; and hydroxymethyl-MIBG displaced 27%.

SK-N-BE(2c) (NET ++++) = assay: cells; type: cell-based
IMR32 (NET 0/+) = assay: Cytotoxicity, MTT assay, IMR32; type: cell-based; conditions: 24 hr assay, 1% EtOH
SK-N-SH (NET ++) = assay: Cytotoxicity, MTT assay, SK-N-SH; type: cell-based; conditions: read-out: Cytotoxicity IC50
[2] = Maximum tolerated dose (MTD) study in mice; type: in vivo
Method: The MTD study utilized 4 groups of 5 HRLN female nu/nu mice. Mice in each group were injected i.v. with a single dose of chloromethyl-MIBG in 1% DMSO in water [5, 10, 15, or 20 mg/kg (drug/animal)]. Drug solutions were made fresh at room temperature and injections were completed within 20 minutes of making the drug solution (under these conditions, the half-life of chloromethyl-MIBG was estimated to be >10 hrs). The dosing volume was 0.20 mL/20 g mouse (adjusted accordingly for body weight). Animals were followed for 21 days post-injection; body weight was monitored daily for 5 days and then biweekly. The “endpoint MTD” was defined as a mean weight loss of >20% or death of >10% of animals in a group.

[3] = 24 hr assay, 1% EtOH, read-out: Cytotoxicity IC50
[4] = 24 hr assay, single agent, 1% DMSO, read-out: Cytotoxicity IC50
[5] = 48 hr assay (24 h exposure + 24 h recovery), Table 3, read-out: Cytotoxicity IC50
[6] = 48 hr assay, + 1.5 μM desipramine (40 min pre-treatment, then co-incubation), read-out: Cytotoxicity IC50, NET inhibition experiment
[7] = 48 hr assay, single agent, Table 4, read-out: Cytotoxicity IC50
[8] = 48 hr assay, without desipramine, read-out: Cytotoxicity IC50, NET inhibition experiment
[9] = 48 hr assay (24 h exposure + 24 h recovery), Table 3
[10] = groups dosed at 10, 15 and 20 mg/kg i.v.

With `CCCCS(=N)(=O)CCC(N)C(=O)O` (stereo not drawn) [BSO, buthionine sulfoximine] the “glutathione depletion compared to controls” value (MCF7 (no NET); 25 μM BSO) was 42% and the “glutathione depletion compared to controls” value (SK—N-BE(2c) (high NET); 25 μM BSO) was 54%.
With `N=C(N)NCc1ccc(CBr)c(I)c1` [Bromomethyl-MIBG] the Half-life [1] was 42.5 ± 0.7 min and the “Half-life w/10 eq GSH” value [1] was <0.083 min.
In the case of `N=C(N)NCc1ccc(CCl)c(I)c1` [Chloromethyl-MIBG], the “glutathione depletion compared to controls” value (MCF7 (no NET); 5 μM chloromethyl-MIBG) is reported as 8%, the IC50 (SK-N-MC (NET ++)) is reported as 25 µM and the IC50 (MCF7 (NET 0); [3]) is reported as 50 µM. For the same compound, the IC50 (MCF7 (NET 0); [4]) was 56.9 ± 6.2 µM, the IC50 (MCF7 (NET 0); [5]) was 14.3 ± 2.13 µM and the IC50 (MCF7 (NET 0); [6]) was 20.2 ± 1.9 µM. For the same compound, the IC50 (MCF7 (NET 0); [7]) was 14.3 ± 2.1 µM, the IC50 (MCF7 (NET 0); [8]) was 19.8 ± 1.3 µM and the “displacement of [125I]MIBG (specific cell-bound radioactivity)” value (NET) was 83%. For the same compound, the IC50 (SK-N-BE(2c) (NET ++++); [3]) was 5 µM, the IC50 (SK-N-BE(2c) (NET ++++); [4]) was 5.7 ± 1.5 µM and the IC50 (SK-N-BE(2c) (NET ++++); [5]) was 4.63 ± 1.58 µM. The IC50 (SK-N-BE(2c) (NET ++++); [6]) was 14.3 ± 1.7 µM, the IC50 (SK-N-BE(2c) (NET ++++); [7]) was 4.6 ± 1.6 µM and the IC50 (SK-N-BE(2c) (NET ++++); [8]) was 3.2 ± 0.6 µM. The “increase in IC50 in presence of desipramine” value (SK-N-BE(2c) (NET ++++); with vs without desipramine) was ~5 fold, the “half-life of drug solution” value ([1]; 1% DMSO in water, room temperature, estimated) was > 600 min and the Half-life [1] was 580 ± 25 min. The “Half-life w/10 eq GSH” value [1] was 0.843 ± 0.0533 min, the “glutathione depletion compared to controls” value (SK—N-BE(2c) (high NET); 5 μM chloromethyl-MIBG) was “about 30%” and the “glutathione concentration relative to control” value (SK—N-BE(2c) (high NET); 25 μM at t=0, measured at 4 hrs) was 50%. For the same compound, the IC50 (IMR32 (NET 0/+)) was 63 µM, the IC50 (SK-N-SH (NET ++); [9]) was 18.4 ± 9.1 µM and the IC50 (SK-N-SH (NET ++); 48 hr assay, single agent, Table 4) was 18.4 ± 9.1 µM. For the same compound, the “animal deaths over the course of the study” value ([2]; 5-20 mg/kg single i.v. dose, 21 days) was “no animal deaths”, the MTD ([2]; HRLN female nu/nu mice, single i.v. dose, 21 days follow-up) was > 20 mg/kg and the “adverse signs upon drug injection” value [2, 10] was “signs of hypoactivity, labored breathing, darkening of skin color, and/or seizures/tremors”. The “time for adverse symptoms to go away” value [2, 10] was ≤ 30 s.
For `N=C(N)NCc1cccc(I)c1` [MIBG, meta-iodobenzylguanidine], the IC50 (MCF7 (NET 0); [4]) was 227 µM and 232 µM, the IC50 (MCF7 (NET 0); [5]) was 137 ± 27 µM and the IC50 (SK-N-BE(2c) (NET ++++); [4]) was 167 µM and 200 µM. The IC50 (SK-N-BE(2c) (NET ++++); [5]) was 142 ± 21 µM and the IC50 (SK-N-SH (NET ++); [9]) was 190 ± 22 µM.
For `N=C(N)NCc1cccc([131I])c1` [MIBG, meta-iodobenzylguanidine], the “displacement of [125I]MIBG (specific cell-bound radioactivity)” value (NET) was 100% and the “effect on glutathione levels” value (SK—N-BE(2c) (high NET); concentrations up to 25 μM, incubation up to 4 hrs) was “did not significantly affect glutathione levels”.

— US20100104628A1, “METHOD OF TREATING NEUROBLASTOMA” (priority 2007, published 2010)
